Data published in the NIST ThermoML archive (doi:10.1021/je9000608).
± gives the expanded uncertainty stated by the source. One block for each compound: values may come before it.

Key:
[1] = refractive index (Na D-line) (dimensionless); conditions: 101.33 kPa, Liquid, Standard Abbe refractometry
[2] = Liquid; for mass density: 101.33 kPa, Pycnometric method; for vapor or sublimation pressure: Ebulliometric method (Recirculating still)

Compound: ClC(Cl)C(Cl)Cl [1,1,2,2-tetrachloroethane]
refractive index ([1]; 293.15 K): 1.494 ± 0.0008
mass density ([2]; 293.15 K): 1593 ± 1.8 kg/m3
vapor or sublimation pressure ([2]; 417.25 K): 95.6 ± 1 kPa

refractive index ([1]; 293.15 K): 1.4196 ± 0.0008
mass density ([2]; 293.15 K): 1252.9 ± 1.3 kg/m3
vapor or sublimation pressure ([2]; 355.15 K): 95.6 ± 1 kPa
Compound: ClCCCl [1,2-dichloroethane]

refractive index ([1]; 298.15 K): 1.4157 ± 0.0008
mass density ([2]; 298.15 K): 815.3 ± 0.8 kg/m3
vapor or sublimation pressure ([2]; 428.45 K): 95.6 ± 1 kPa
Compound: CCCCCCO [hexan-1-ol]

Compound: ClC(Cl)=C(Cl)Cl [tetrachloroethene]
refractive index ([1]; 293.15 K): 1.5058 ± 0.0008
mass density ([2]; 293.15 K): 1623 ± 1.8 kg/m3
vapor or sublimation pressure ([2]; 392.15 K): 95.6 ± 1 kPa

Compound: ClC=C(Cl)Cl [trichloroethene]
refractive index ([1]; 303.15 K): 1.475 ± 0.0008
mass density ([2]; 303.15 K): 1451.3 ± 1.6 kg/m3
vapor or sublimation pressure ([2]; 358.45 K): 95.6 ± 1 kPa
